# In patent publication US20090311217A1, “3-SUBSTITUTED-1H-INDOLE COMPOUNDS, THEIR USE AS MTOR KINASE AND PI3 KINASE INHIBITORS, AND THEIR SYNTHESES” (priority 2008, published 2009):
# pIC50: −log10 of the molar value. Like-named read-outs stand apart in the source and are kept apart here.
# How the values were obtained:
# [1] = target: PI3K-alpha (Homo sapiens, UniProt P42336); assay: PI3K-alpha fluorescence polarization assay; type: biochemical
# [2] = target: PI3K-gamma (Homo sapiens, UniProt P48736); assay: PI3K-gamma fluorescence polarization assay; type: biochemical; conditions: PI3Kγ Avg. IC50
# PI3K-gamma, sequence (P48736 whole entry, species assumed, the tested form may be a part): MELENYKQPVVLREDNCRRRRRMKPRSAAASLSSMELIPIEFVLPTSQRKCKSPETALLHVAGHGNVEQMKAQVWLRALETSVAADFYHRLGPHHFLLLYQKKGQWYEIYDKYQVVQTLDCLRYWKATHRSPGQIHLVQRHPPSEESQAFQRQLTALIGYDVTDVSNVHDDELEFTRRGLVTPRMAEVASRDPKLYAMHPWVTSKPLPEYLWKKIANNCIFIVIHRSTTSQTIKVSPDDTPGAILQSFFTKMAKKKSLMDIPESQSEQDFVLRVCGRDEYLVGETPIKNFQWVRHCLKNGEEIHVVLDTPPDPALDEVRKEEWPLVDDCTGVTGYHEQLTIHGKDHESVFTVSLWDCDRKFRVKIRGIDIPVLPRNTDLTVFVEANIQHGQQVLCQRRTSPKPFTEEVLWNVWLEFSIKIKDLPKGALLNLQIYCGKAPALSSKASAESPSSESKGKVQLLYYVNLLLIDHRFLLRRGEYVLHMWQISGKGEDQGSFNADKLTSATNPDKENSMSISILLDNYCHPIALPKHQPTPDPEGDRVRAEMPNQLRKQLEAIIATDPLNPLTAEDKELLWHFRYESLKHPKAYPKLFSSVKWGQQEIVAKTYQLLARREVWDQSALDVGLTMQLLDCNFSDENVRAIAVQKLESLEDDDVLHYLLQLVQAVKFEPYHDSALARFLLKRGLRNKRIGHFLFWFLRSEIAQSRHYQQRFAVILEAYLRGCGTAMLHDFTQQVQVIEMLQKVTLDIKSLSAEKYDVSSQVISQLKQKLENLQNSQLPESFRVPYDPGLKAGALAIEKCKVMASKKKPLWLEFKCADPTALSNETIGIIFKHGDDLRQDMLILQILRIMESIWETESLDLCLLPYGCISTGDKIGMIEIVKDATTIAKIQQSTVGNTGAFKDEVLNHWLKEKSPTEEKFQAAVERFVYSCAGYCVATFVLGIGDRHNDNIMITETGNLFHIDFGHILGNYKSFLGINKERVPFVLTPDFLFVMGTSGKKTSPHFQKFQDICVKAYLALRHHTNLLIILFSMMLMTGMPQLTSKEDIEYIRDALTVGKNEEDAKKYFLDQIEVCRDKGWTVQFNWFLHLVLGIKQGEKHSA
# Procedure, shortened: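 Reactions in 5 mM HEPES pH 7, 2.5 mM MgCl2, 25 μM ATP with 2.5 μM diC8-PI(4,5)P2 and 5 ng enzyme, 1 h at 25° C, then EDTA quench. Product detected by FP using GST-GRP1 PH domain (100 nM) and BODIPY-TMR-IP4 tracer (5 nM); final DMSO 0.8%.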
# PI3K-alpha, sequence (P42336 whole entry, species assumed): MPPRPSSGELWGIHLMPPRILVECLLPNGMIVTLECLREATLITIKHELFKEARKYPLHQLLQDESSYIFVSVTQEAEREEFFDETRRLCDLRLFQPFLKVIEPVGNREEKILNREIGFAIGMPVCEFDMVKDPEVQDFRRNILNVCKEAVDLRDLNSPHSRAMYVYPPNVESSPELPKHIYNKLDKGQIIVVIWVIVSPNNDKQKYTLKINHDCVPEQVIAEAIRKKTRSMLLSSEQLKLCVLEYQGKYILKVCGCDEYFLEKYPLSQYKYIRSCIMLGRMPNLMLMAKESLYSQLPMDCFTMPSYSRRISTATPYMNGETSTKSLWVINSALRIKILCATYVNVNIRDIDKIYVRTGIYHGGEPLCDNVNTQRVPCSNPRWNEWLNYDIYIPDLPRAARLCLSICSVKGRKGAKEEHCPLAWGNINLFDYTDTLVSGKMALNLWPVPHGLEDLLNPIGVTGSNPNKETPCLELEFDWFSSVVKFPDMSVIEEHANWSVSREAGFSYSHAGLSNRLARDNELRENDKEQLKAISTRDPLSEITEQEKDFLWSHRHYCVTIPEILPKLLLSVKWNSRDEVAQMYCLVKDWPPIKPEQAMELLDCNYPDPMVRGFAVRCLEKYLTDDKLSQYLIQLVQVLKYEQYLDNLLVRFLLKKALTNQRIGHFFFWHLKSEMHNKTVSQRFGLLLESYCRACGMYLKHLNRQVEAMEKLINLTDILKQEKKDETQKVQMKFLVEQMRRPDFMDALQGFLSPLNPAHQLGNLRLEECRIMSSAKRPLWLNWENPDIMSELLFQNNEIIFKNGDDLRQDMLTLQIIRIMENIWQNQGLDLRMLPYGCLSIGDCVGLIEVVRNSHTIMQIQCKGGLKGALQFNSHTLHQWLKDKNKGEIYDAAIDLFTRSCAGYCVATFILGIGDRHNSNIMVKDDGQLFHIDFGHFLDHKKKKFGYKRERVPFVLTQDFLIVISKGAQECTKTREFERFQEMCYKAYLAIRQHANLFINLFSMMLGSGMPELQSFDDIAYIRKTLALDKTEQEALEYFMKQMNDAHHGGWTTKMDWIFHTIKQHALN
# PI3K-alpha, sequence (P27986 whole entry partner, species assumed): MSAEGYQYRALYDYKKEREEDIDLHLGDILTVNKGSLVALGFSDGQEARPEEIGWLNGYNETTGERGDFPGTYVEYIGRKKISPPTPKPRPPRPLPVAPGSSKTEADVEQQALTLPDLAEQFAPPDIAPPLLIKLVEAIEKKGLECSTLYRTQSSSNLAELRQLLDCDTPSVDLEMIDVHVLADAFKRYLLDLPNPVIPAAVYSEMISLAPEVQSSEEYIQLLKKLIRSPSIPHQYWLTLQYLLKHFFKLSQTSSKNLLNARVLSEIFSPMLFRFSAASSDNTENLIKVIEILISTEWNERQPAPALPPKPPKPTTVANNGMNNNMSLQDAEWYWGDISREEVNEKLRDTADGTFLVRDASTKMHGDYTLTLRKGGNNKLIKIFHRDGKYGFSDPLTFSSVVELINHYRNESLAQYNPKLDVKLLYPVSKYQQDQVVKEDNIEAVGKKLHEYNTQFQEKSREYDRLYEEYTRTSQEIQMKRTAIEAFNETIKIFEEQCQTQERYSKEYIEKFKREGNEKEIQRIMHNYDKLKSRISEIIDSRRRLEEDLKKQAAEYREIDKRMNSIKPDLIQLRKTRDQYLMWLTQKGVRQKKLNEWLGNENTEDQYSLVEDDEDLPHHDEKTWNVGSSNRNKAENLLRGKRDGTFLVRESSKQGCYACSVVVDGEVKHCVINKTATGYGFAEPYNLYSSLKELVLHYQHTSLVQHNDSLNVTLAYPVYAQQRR
pIC50 ([1]; read-out: PI3Kα Avg. IC50),pIC50 [2],pIC50 ([1]; PI3Kα Avg. IC50),SMILES
7.98,< 5.00,–,"CNC(=O)Nc1ccc2c(c1)C(=O)/C(=C/c1c(C#N)[nH]c3ccc(OC)cc13)O2 [Compound 604, 1-{(2Z)-2-[(2-cyano-5-methoxy-1H-indol-3-yl)methylidene]-3-oxo-2,3-dihydro-1-benzofuran-5-yl}-3-methylurea]"
8.35,5.37,–,"CNC(=O)Nc1ccc2c(c1)C(=O)/C(=C/c1c(C3=CCNCC3)n(CCN3CCN(C)CC3)c3ccc(OC)cc13)O2 [Compound 607, 1-[(2Z)-2-({5-methoxy-1-[2-(4-methylpiperazin-1-yl)ethyl]-2-(1,2,3,6-tetrahydropyridin-4-yl)-1H-indol-3-yl}methylidene)-3-oxo-2,3-dihydro-1-benzofuran-5-yl]-3-methylurea]"
7.82,6.35,–,"CNC(=O)Nc1ccc2c(c1)C(=O)/C(=C/c1c(C)n(CCN3CCCCC3)c3ccc(OC)cc13)O2 [Compound 609, 1-[(2Z)-2-{[5-methoxy-2-methyl-1-(2-piperidin-1-ylethyl)-1H-indol-3-yl]methylidene}-3-oxo-2,3-dihydro-1-benzofuran-5-yl]-3-methylurea]"
7.71,6.15,–,"CNC(=O)Nc1ccc2c(c1)C(=O)/C(=C/c1c(C)n(CCN3CCCC3)c3ccc(OC)cc13)O2 [Compound 611, 1-[(2Z)-2-{[5-methoxy-2-methyl-1-(2-pyrrolidin-1-ylethyl)-1H-indol-3-yl]methylidene}-3-oxo-2,3-dihydro-1-benzofuran-5-yl]-3-methylurea]"
7.90,6.81,–,"CNC(=O)Nc1ccc2c(c1)C(=O)/C(=C/c1c(CN(C)CCN(C)C)[nH]c3ccc(OC)cc13)O2 [Compound 613, 1-[(2Z)-2-{[2-({[2-(dimethylamino)ethyl](methyl)amino}methyl)-5-methoxy-1Hindol-3-yl]methylidene}-3-oxo-2,3-dihydro-1-benzofuran-5-yl]-3-methylurea]"
8.02,6.86,–,"CNC(=O)Nc1ccc2c(c1)C(=O)/C(=C/c1c(CN3CCN(C)CC3)[nH]c3ccc(OC)cc13)O2 [Compound 615, 1-[(2Z)-2-({5-methoxy-2-[(4-methylpiperazin-1-yl)methyl]-1H-indol-3-yl}methylidene)-3-oxo-2,3-dihydro-1-benzofuran-5-yl]-3-methylurea]"
9.40,8.32,–,"CNC(=O)Nc1ccc2c(c1)C(=O)/C(=C/c1c(-c3c(C)nn(C)c3C)[nH]c3ccc(OC)cc13)O2 [Compound 616, 1-[(2Z)-2-{[5-methoxy-2-(1,3,5-trimethyl-1H-pyrazol-4-yl)-1H-indol-3-yl]methylidene}-3-oxo-2,3-dihydro-1-benzofuran-5-yl]-3-methylurea]"
7.94,7.16,–,"CCn1c(C)c(/C=C2\Oc3ccc(NC(=O)Nc4ccc(N(C)C)cc4)cc3C2=O)c2cc(OC)ccc21 [Compound 681, 1-[4-(dimethylamino)phenyl]-3-{(2Z)-2-[(1-ethyl-5-methoxy-2-methyl-1H-indol-3-yl)methylidene]-3-oxo-2,3-dihydro-1-benzofuran-5-yl}urea]"
7.13,6.36,–,"COc1ccc2[nH]c(-c3ccccc3)c(C=C3Oc4c(ccc(O)c4O)C3=O)c2c1 [Example 71, 6,7-dihydroxy-2-[(5-methoxy-2-phenyl-1H-indol-3-yl)methylene]-1-benzofuran-3(2H)-one]"
5.42,< 5.00,–,"COc1ccc2[nH]c(C)c(CC3Oc4cc(O)cc(O)c4C3=O)c2c1 (stereo not shown) [Example 119, 4,6-dihydroxy-2-[(5-methoxy-2-methyl-1H-indol-3-yl)methyl]-1-benzofuran-3(2H)-one]"
5.81,4.99,–,"COc1ccc2[nH]c(C)c(C=C3Oc4c(O)cccc4C3=O)c2c1 [Example 120, 7-hydroxy-2-[(5-methoxy-2-methyl-1H-indol-3-yl)methylene]-1-benzofuran-3(2H)-one]"
6.86,5.82,–,"COc1ccc2c(c1)c(C=C1Oc3c(ccc(O)c3O)C1=O)c(C)n2CCCCCl [Example 122, 2-{[1-(4-chlorobutyl)-5-methoxy-2-methyl-1H-indol-3-yl]methylene}-6,7-dihydroxyl-1-benzofuran-3(2H)-one]"
5.91,< 5.00,–,"COc1ccc2c(c1)c(C=C1Oc3cccc(O)c3C1=O)c(C)n2CCCCCl [Example 123, 2-{[1-(4-chlorobutyl)-5-methoxy-2-methyl-1H-indol-3-yl]methylene}-4-hydroxy-1-benzofuran-3(2H)-one]"
7.19,5.91,–,"COc1ccc2c(c1)c(C=C1Oc3c(ccc(O)c3O)C1=O)c(C)n2CCCCl [Example 124, 2-{[1-(3-chloropropyl)-5-methoxy-2-methyl-1H-indol-3-yl]methylene}-6,7-dihydroxy-1-benzofuran-3(2H)-one]"
6.63,5.61,–,"COc1ccc2c(c1)c(C=C1Oc3cccc(O)c3C1=O)c(C)n2CCCCN1CCOCC1 [Example 136, 4-hydroxy-2-{[5-methoxy-2-methyl-1-(4-morpholin-4-ylbutyl)-1H-indol-3-yl]methylene}-1-benzofuran-3(2H)-one]"

# The next lines start with the compound.
SMILES,pIC50 ([1]; read-out: PI3Kα Avg. IC50),pIC50 [2],pIC50 ([1]; PI3Kα Avg. IC50)
"CNC(=O)Nc1ccc2c(c1)C(=O)/C(=C/c1c(C(=O)NC)[nH]c3ccc(OC)cc13)O2 [Compound 603, 5-methoxy-N-methyl-3-[(Z)-{5-[(methylcarbamoyl)amino]-3-oxo-1-benzofuran-2(3H)-ylidene}methyl]-1H-indole-2-carboxamide]",8.19,6.99,–
"CNC(=O)Nc1ccc2c(c1)C(=O)/C(=C/c1c(C(=O)NCCN(C)C)[nH]c3ccc(OC)cc13)O2 [Compound 605, N-[2-(dimethylamino)ethyl]-5-methoxy-3-[(Z)-{5-[(methylcarbamoyl)amino]-3-oxo-1-benzofuran-2(3H)-ylidene}methyl]-1H-indole-2-carboxamide]",7.72,6.50,–
"CNC(=O)Nc1ccc2c(c1)C(=O)/C(=C/c1c(C3=CCNCC3)[nH]c3ccc(OC)cc13)O2 [Compound 606, 1-[(2Z)-2-{[5-methoxy-2-(1,2,3,6-tetrahydropyridin-4-yl)-1H-indol-3-yl]methylidene}-3-oxo-2,3-dihydro-1-benzofuran-5-yl]-3-methylurea]",8.10,6.95,–
"CNC(=O)Nc1ccc2c(c1)C(=O)/C(=C/c1c(C)n(CCN3CCOCC3)c3ccc(OC)cc13)O2 [Compound 608, 1-[(2Z)-2-{[5-methoxy-2-methyl-1-(2-morpholin-4-ylethyl)-1H-indol-3-yl]methylidene}-3-oxo-2,3-dihydro-1-benzofuran-5-yl]-3-methylurea]",7.81,6.87,–
"CNC(=O)Nc1ccc2c(c1)C(=O)/C(=C/c1c(C)n(CCN(C)C)c3ccc(OC)cc13)O2 [Compound 610, 1-[(2Z)-2-({1-[2-(dimethylamino)ethyl]-5-methoxy-2-methyl-1H-indol-3-yl}methylidene)-3-oxo-2,3-dihydro-1-benzofuran-5-yl]-3-methylurea]",7.94,6.97,–
"CNC(=O)Nc1ccc2c(c1)C(=O)/C(=C/c1c(CN(C)C)[nH]c3ccc(OC)cc13)O2 [Compound 612, 1-[(2Z)-2-({2-[(dimethylamino)methyl]-5-methoxy-1H-indol-3-yl}methylidene)-3-oxo-2,3-dihydro-1-benzofuran-5-yl]-3-methylurea]",7.81,6.92,–
"CNC(=O)Nc1ccc2c(c1)C(=O)/C(=C/c1c(-c3nc(C(C)C)no3)n(CCN3CCN(C)CC3)c3ccc(OC)cc13)O2 [Compound 614, 1-[(2Z)-2-({5-methoxy-2-[3-(1-methylethyl)-1,2,4-oxadiazol-5-yl]-1-[2-(4-methylpiperazin-1-yl)ethyl]-1H-indol-3-yl}methylidene)-3-oxo-2,3-dihydro-1-benzofuran-5-yl]-3-methylurea]",8.46,6.45,–
"Cc1[nH]c2ccc(Br)cc2c1/C=C1\Oc2c(ccc(O)c2O)C1=O [Example 66, (2Z)-2-[(5-bromo-2-methyl-1H-indol-3-yl)methylene]-6,7-dihydroxy-1-benzofuran-3(2H)-one]",6.63,5.54,–
"O=C1/C(=C/c2c(-c3ccc(F)cc3)[nH]c3ccccc23)Oc2c(O)cccc21 [Example 68, (2Z)-2-{[2-(4-fluorophenyl)-1H-indol-3-yl]methylene}-7-hydroxy-1-benzofuran-3(2H)-one]",–,6.31,6.32
"COc1ccc2[nH]cc(CC3Oc4cc(O)cc(O)c4C3=O)c2c1 (stereo not shown) [Example 117, 4,6-dihydroxy-2-[(5-methoxy-1H-indol-3-yl)methyl]-1-benzofuran-3(2H)-one]",5.73,5.07,–
"COc1ccc2[nH]c(-c3ccccc3)c(CC3Oc4cc(O)cc(O)c4C3=O)c2c1 (stereo not shown) [Example 118, 4,6-dihydroxy-2-[(5-methoxy-2-phenyl-1H-indol-3-yl)methyl]-1-benzofuran-3(2H)-one]",6.54,6.03,–
"COc1ccc2c(c1)c(C=C1Oc3cccc(O)c3C1=O)c(C)n2C [Example 121, 4-hydroxy-2-[(5-methoxy-1,2-dimethyl-1H-indol-3-yl)methylene]-1-benzofuran-3(2H)-one]",6.50,5.27,–
"COc1ccc2c(c1)c(C=C1Oc3cccc(O)c3C1=O)c(C)n2CCCCl [Example 125, 2-{[1-(3-chloropropyl)-5-methoxy-2-methyl-1H-indol-3-yl]methylene}-4-hydroxy-1-benzofuran-3(2H)-one]",6.42,6.03,–
"COc1ccc2c(c1)c(C=C1Oc3cccc(O)c3C1=O)c(C)n2CCCCN1CCN(C)CC1 [Example 135, 4-hydroxy-2-({5-methoxy-2-methyl-1-[4-(4-methylpiperazin-1-yl)butyl]-1H-indol-3-yl}methylene)-1-benzofuran-3(2H)-one]",5.89,5.32,–
